Assay [1] deals with T1, wild-type Androgen Receptor (AR-wt) (Homo sapiens, UniProt P10275).
T1 construct: expressed in transfected cells; host or cells: LNCaP AR (cs) cells with ARE firefly luciferase lentiviral construct
T1 sequence (P10275 1-920): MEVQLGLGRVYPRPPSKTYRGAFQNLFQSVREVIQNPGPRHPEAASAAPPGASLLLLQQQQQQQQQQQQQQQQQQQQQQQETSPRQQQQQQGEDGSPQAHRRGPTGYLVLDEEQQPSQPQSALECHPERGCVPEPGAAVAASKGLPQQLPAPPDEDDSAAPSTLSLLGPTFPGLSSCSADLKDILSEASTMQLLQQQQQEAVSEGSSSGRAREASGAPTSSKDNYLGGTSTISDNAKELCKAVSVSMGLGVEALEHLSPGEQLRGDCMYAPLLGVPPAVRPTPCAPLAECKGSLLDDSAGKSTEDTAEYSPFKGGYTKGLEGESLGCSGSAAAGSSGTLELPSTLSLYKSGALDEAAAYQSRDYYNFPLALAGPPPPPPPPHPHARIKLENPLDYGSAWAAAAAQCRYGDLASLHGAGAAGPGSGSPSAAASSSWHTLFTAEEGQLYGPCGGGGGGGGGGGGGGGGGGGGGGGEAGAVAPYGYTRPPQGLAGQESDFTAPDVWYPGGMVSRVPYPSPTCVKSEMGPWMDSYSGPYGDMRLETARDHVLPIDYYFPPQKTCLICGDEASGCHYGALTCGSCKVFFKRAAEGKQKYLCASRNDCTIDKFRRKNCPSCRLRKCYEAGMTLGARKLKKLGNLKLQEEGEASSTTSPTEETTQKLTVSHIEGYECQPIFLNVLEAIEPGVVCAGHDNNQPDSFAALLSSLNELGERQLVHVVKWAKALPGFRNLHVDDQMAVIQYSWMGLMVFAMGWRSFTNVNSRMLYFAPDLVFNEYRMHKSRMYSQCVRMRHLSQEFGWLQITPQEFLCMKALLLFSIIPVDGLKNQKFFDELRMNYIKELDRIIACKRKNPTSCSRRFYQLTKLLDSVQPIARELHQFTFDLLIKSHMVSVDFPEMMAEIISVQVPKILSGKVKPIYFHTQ
Briefly: LNCaP-AR-wt AG: ARE luciferase reporter assay, agonist mode. Type of assay: cell-based. The protocol:
(§1) A stable pooled-population cell line was generated using puromycin (Life Technologies) selection at 1:10,000 v/v. The protocol below was used for both cell lines and for testing of the compounds of Formula (I) of the present invention.
(§2) LNCaP cells were grown to about 80% confluence, media removed and cells rinsed in Hank's balanced salt solution prior to separation from the plate with 0.05% Trypsin EDTA. Cells were lifted and trypsin negated in complete CSS (charcoal stripped serum) culture media. […] Agonist challenge was at 400 pM for WT assay and 600 pM for F876L assay. Plates containing cells and compounds herein were incubated for a further 20-24 hours at 37° C., 5% CO2 before addition of 40 μL/well of Steady-Glo Luciferase Assay System Reagent (Promega# E2520). After 1 h, plates were read for luminescence on a BMG Pherastar.
(§3) EC/IC50 calculations were achieved utilizing calculated RLU data and data fitting macros. Data were fit using least-squares methods to the following formula: […]
(§4) As used herein: pIC50 is defined as—Log10(IC50 expressed in [Molar]). pEC50 is defined as—Log10(EC50 expressed in [Molar]). […] LNCaP-AR-wt ANT refers to the reporter assay using LNCaP cells stably transfected with the Androgen Response Element Firefly Luciferase lentiviral construct and wild-type Androgen Receptor (AR-wt) in Antagonist mode. LNCaP-AR-wt AG refers to the reporter assay using LNCaP cells stably transfected with the Androgen Response Element Firefly Luciferase lentiviral construct and wild-type Androgen Receptor (AR-wt) in Agonist mode. LNCaP-AR-F876L ANT refers to the reporter assay using LNCaP cells stably transfected with the Androgen Response Element Firefly Luciferase lentiviral construct and F876L mutant Androgen Receptor (AR-F876L) in Antagonist mode. LNCaP-AR-F876L AG refers to the reporter assay using LNCaP cells stably transfected with the Androgen Response Element Firefly Luciferase lentiviral construct and F876L mutant Androgen Receptor (AR-F876L) in Agonist mode.

Assay [2] has as its target T2, F876L mutant Androgen Receptor (AR-F876L) (Homo sapiens, UniProt P10275, F877L).
T2 construct: expressed in transfected cells; host or cells: LNCaP F876L cells with ARE firefly luciferase lentiviral construct
T2 sequence (P10275 1-920 F877L): T1 sequence (P10275 1-920) with F877L
The experiment in a line: LNCaP-AR-F876L AG: ARE luciferase reporter assay, agonist mode. Type of assay: cell-based. The protocol: as §1, §2, §3, §4

Assay [3] deals with T1, wild-type Androgen Receptor (AR-wt). Briefly: LNCaP-AR-wt ANT: ARE luciferase reporter assay, antagonist mode. Format: cell-based. The protocol:
as §1, §2, §3
(§5) As used herein: pIC50 is defined as—Log10(IC50 expressed in [Molar]). pEC50 is defined as—Log10(EC50 expressed in [Molar]). […] LNCaP-AR-wt ANT refers to the reporter assay using LNCaP cells stably transfected with the Androgen Response Element Firefly Luciferase lentiviral construct and wild-type Androgen Receptor (AR-wt) in Antagonist mode. […]

For assay [4], the target named is T2, F876L mutant Androgen Receptor (AR-F876L). Briefly: LNCaP-AR-F876L ANT: ARE luciferase reporter assay, antagonist mode. Format: cell-based. The method, then: as §1, §2, §3, §5
In assay [5] the target is T3, T877A AR mutant (Homo sapiens, UniProt P10275, T878A).
T3 sequence (P10275 1-920 T878A): T1 sequence (P10275 1-920) with T878A
Conditions: cited from earlier work.

Where [6] appears, read: maximum % stimulation (agonist response), % of 1 μM R-1881 max.

Residue numbers refer to the chain shown, from its start.

For `CNC(=O)c1ccc(N2C(=S)N(c3cnc(C#N)c(C)c3)C(=O)C23CCCC3)cc1F` [Cpd 65, 4-[7-(6-cyano-5-methyl-3-pyridyl)-6-oxo-8-thioxo-7,9-diazaspiro[4.4]nonan-9-yl]-2-fluoro-N-methyl-benzamide], the EC50 was more than 15100 nM in assay [1] (agonist mode, read-out: LNCaP-AR-wt AG pEC50 (converted)) and more than 15100 nM in assay [2] (agonist mode, read-out: LNCaP-AR-F876L AG pEC50 (converted)). Besides, the Emax in assay [1] (maximum % stimulation (agonist response), % of 1 μM R-1881 max, read-out: LNCaP-AR-wt AG MAX % Stim) came out at 1.2%; in assay [2] (maximum % stimulation (agonist response), % of 1 μM R-1881 max, read-out: LNCaP-AR-F876L AG MAX % Stim) it was 0.8%; in assay [3] (maximum % inhibition of R1881 control response over tested concentration range, read-out: LNCaP-AR-wt ANT MAX % Inh), 97.8%; in assay [4] (maximum % inhibition of R1881 control response over tested concentration range, read-out: LNCaP-AR-F876L ANT MAX % Inh) it was 98.9%. The IC50 in assay [3] (antagonist mode, 400 pM R-1881 challenge, read-out: LNCaP-AR-wt ANT pIC50 (converted)) was 417 nM; in assay [4] (antagonist mode, 600 pM R-1881 challenge, read-out: LNCaP-AR-F876L ANT pIC50 (converted)), 389 nM.
For `Cc1cc(N2C(=O)C3(CCC3)N(c3ccc(-c4cncnc4)cc3)C2=S)cnc1C#N` [Cpd 93, 3-methyl-5-[5-oxo-8-(4-pyrimidin-5-ylphenyl)-7-thioxo-6,8-diazaspiro[3.4]octan-6-yl]pyridine-2-carbonitrile], the “LNCaP-AR-wt AG MAX % Stim” value in assay [1] (setting [6]) is on record as 0.9%. In addition, the “LNCaP-AR-F876L AG MAX % Stim” value in assay [2] (setting [6]) came to 0.8%.
In the same order, the values of `Cc1cc(N2C(=O)C3(CCC3)N(c3ccc(C4CCOCC4)cc3)C2=S)cnc1C#N` [Cpd 101, 3-methyl-5-[5-oxo-8-(4-tetrahydropyran-4-ylphenyl)-7-thioxo-6,8-diazaspiro[3.4]octan-6-yl]pyridine-2-carbonitrile] are 1.1% and 1.7%.
In the case of `N#Cc1ncc(N2C(=O)C3(CCC3)N(c3ccc(Oc4ccccn4)cc3)C2=S)cc1C(F)(F)F` [Cpd 103, 5-[5-oxo-8-[4-(2-pyridyloxy)phenyl]-7-thioxo-6,8-diazaspiro[3.4]octan-6-yl]-3-(trifluoromethyl)pyridine-2-carbonitrile], the “LNCaP-AR-wt AG MAX % Stim” value in assay [1] (setting [6]) turned out to be 4.0%. Also, the “LNCaP-AR-F876L AG MAX % Stim” value in assay [2] (setting [6]) is recorded as 2.0%.
In the same order, the values of `C#CCNC(=O)c1ccc(N2C(=S)N(c3cnc(C#N)c(C(F)(F)F)c3)C(=O)C23CCC3)cc1F` [Cpd 111, 4-[6-[6-cyano-5-(trifluoromethyl)-3-pyridyl]-5-oxo-7-thioxo-6,8-diazaspiro[3.4]octan-8-yl]-2-fluoro-N-prop-2-ynyl-benzamide] are 0.5% and 2.7%.
Take `Cc1cncc(-c2ccc(N3C(=S)N(c4cnc(C#N)c(C)c4)C(=O)C34CCC4)cc2)c1` [Cpd 114, 3-methyl-5-[8-[4-(5-methyl-3-pyridyl)phenyl]-5-oxo-7-thioxo-6,8-diazaspiro[3.4]octan-6-yl]pyridine-2-carbonitrile]: the “LNCaP-AR-wt AG MAX % Stim” value in assay [1] (setting [6]) is recorded as 0.7%. In addition, the “LNCaP-AR-F876L AG MAX % Stim” value in assay [2] (setting [6]) amounted to 3.3%.
Consider `CC(C)(O)C(=O)Nc1ccc([N+](=O)[O-])c(C(F)(F)F)c1` [hydroxyflutamide], for which the “activity in T877A AR mutant” value in assay [5] is on record as “act as AR agonists”.
